Laboratory results reported in patent US20030118577A1, “Use of analogues of superoxide dismutase for treating hepatocellular insufficiencies” (priority 2000, published 2003).

System: acute hepatic insufficiency induced by acetaminophen
Experiment: Survival of mice after intraperitoneal acetaminophen (acute hepatic insufficiency)
Protocol: The intraperitoneal injection of acetaminophen into mice induces a severe hepatotoxicity, the degree of which may be evaluated by the survival of the animals, measuring transaminase activities, and macroscopic and microscopic examination of the livers.
The acetaminophen in solution at 100 mg/ml in PBS at pH 7.4 is administered by the intraperitoneal route.
In a first series of experiments, a group of mice received a dose of 1000 mg/kg of acetaminophen; a second group received a dose of 1000 mg/kg of acetaminophen and a dose of 10 mg/kg of MnTBAP administered either 2 h before the acetaminophen or 6 h after; a control group received either MnTBAP alone (10 mg/kg), or PBS alone.
The survival of the animals is monitored for 24 hours after the administration of acetaminophen.
The effect of N-acetyl-L-cysteine (NAC), of CuDIPS, and of MnTBAP on the survival of mice after intraperitoneal injection of 1000 mg/kg of acetaminophen (APAP) was compared.
MnTBAP, NAC, or CuDIPS are administered in the form of a bolus, preventively, 2 hours before (P) or, curatively, 6 hours after (C) the acetaminophen.
The survival of the animals is monitored for 24 hours after administration of acetaminophen.

## CC(=O)N[C@@H](CS)C(=O)O [NAC, N-acetyl-L-cysteine]
APAP 1000 mg/kg, 6 hours after (C) or 2 hours before (P)
  activity on survival, curative versus preventive administration: only active preventively
Group X: APAP 1000 mg/kg, NAC 100 mg/kg (P), time 0 h
  percentage of surviving animals: 100%
Group X: APAP 1000 mg/kg, NAC 100 mg/kg (P), time 6 h
  percentage of surviving animals: 100%
Group X: APAP 1000 mg/kg, NAC 100 mg/kg (P), time 8 h
  percentage of surviving animals: 100%
Group X: APAP 1000 mg/kg, NAC 100 mg/kg (P), time 9 h
  percentage of surviving animals: 100%
Group X: APAP 1000 mg/kg, NAC 100 mg/kg (P), time 10 h
  percentage of surviving animals: 100%
Group X: APAP 1000 mg/kg, NAC 100 mg/kg (P), time 11 h
  percentage of surviving animals: 100%
Group X: APAP 1000 mg/kg, NAC 100 mg/kg (P), time 12 h
  percentage of surviving animals: 100%
Group X: APAP 1000 mg/kg, NAC 100 mg/kg (P), time 13 h
  percentage of surviving animals: 100%
Group X: APAP 1000 mg/kg, NAC 100 mg/kg (P), time 14 h
  percentage of surviving animals: 90%
Group X: APAP 1000 mg/kg, NAC 100 mg/kg (P), time 15 h
  percentage of surviving animals: 80%
Group X: APAP 1000 mg/kg, NAC 100 mg/kg (P), time 16 h
  percentage of surviving animals: 60%
Group X: APAP 1000 mg/kg, NAC 100 mg/kg (P), time 17 h
  percentage of surviving animals: 60%
Group X: APAP 1000 mg/kg, NAC 100 mg/kg (P), time 18 h
  percentage of surviving animals: 50%
Group X: APAP 1000 mg/kg, NAC 100 mg/kg (P), time 20 h
  percentage of surviving animals: 40%
Group X: APAP 1000 mg/kg, NAC 100 mg/kg (P), time 22 h
  percentage of surviving animals: 40%
Group X: APAP 1000 mg/kg, NAC 100 mg/kg (P), time 24 h
  percentage of surviving animals: 40%
Group XI: APAP 1000 mg/kg, NAC 200 mg/kg (P), time 0 h
  percentage of surviving animals: 100%
Group XI: APAP 1000 mg/kg, NAC 200 mg/kg (P), time 6 h
  percentage of surviving animals: 100%
Group XI: APAP 1000 mg/kg, NAC 200 mg/kg (P), time 8 h
  percentage of surviving animals: 100%
Group XI: APAP 1000 mg/kg, NAC 200 mg/kg (P), time 9 h
  percentage of surviving animals: 100%
Group XI: APAP 1000 mg/kg, NAC 200 mg/kg (P), time 10 h
  percentage of surviving animals: 100%
Group XI: APAP 1000 mg/kg, NAC 200 mg/kg (P), time 11 h
  percentage of surviving animals: 90%
Group XI: APAP 1000 mg/kg, NAC 200 mg/kg (P), time 12 h
  percentage of surviving animals: 90%
Group XI: APAP 1000 mg/kg, NAC 200 mg/kg (P), time 13 h
  percentage of surviving animals: 90%
Group XI: APAP 1000 mg/kg, NAC 200 mg/kg (P), time 14 h
  percentage of surviving animals: 90%
Group XI: APAP 1000 mg/kg, NAC 200 mg/kg (P), time 15 h
  percentage of surviving animals: 90%
Group XI: APAP 1000 mg/kg, NAC 200 mg/kg (P), time 16 h
  percentage of surviving animals: 80%
Group XI: APAP 1000 mg/kg, NAC 200 mg/kg (P), time 17 h
  percentage of surviving animals: 80%
Group XI: APAP 1000 mg/kg, NAC 200 mg/kg (P), time 18 h
  percentage of surviving animals: 60%
Group XI: APAP 1000 mg/kg, NAC 200 mg/kg (P), time 20 h
  percentage of surviving animals: 60%
Group XI: APAP 1000 mg/kg, NAC 200 mg/kg (P), time 22 h
  percentage of surviving animals: 60%
Group XI: APAP 1000 mg/kg, NAC 200 mg/kg (P), time 24 h
  percentage of surviving animals: 60%
Group XII: APAP 1000 mg/kg, NAC 300 mg/kg (P), time 0 h
  percentage of surviving animals: 100%
Group XII: APAP 1000 mg/kg, NAC 300 mg/kg (P), time 6 h
  percentage of surviving animals: 100%
Group XII: APAP 1000 mg/kg, NAC 300 mg/kg (P), time 8 h
  percentage of surviving animals: 100%
Group XII: APAP 1000 mg/kg, NAC 300 mg/kg (P), time 9 h
  percentage of surviving animals: 90%
Group XII: APAP 1000 mg/kg, NAC 300 mg/kg (P), time 10 h
  percentage of surviving animals: 90%
Group XII: APAP 1000 mg/kg, NAC 300 mg/kg (P), time 11 h
  percentage of surviving animals: 90%
Group XII: APAP 1000 mg/kg, NAC 300 mg/kg (P), time 12 h
  percentage of surviving animals: 90%
Group XII: APAP 1000 mg/kg, NAC 300 mg/kg (P), time 13 h
  percentage of surviving animals: 90%
Group XII: APAP 1000 mg/kg, NAC 300 mg/kg (P), time 14 h
  percentage of surviving animals: 90%
Group XII: APAP 1000 mg/kg, NAC 300 mg/kg (P), time 15 h
  percentage of surviving animals: 90%
Group XII: APAP 1000 mg/kg, NAC 300 mg/kg (P), time 16 h
  percentage of surviving animals: 90%
Group XII: APAP 1000 mg/kg, NAC 300 mg/kg (P), time 17 h
  percentage of surviving animals: 90%
Group XII: APAP 1000 mg/kg, NAC 300 mg/kg (P), time 18 h
  percentage of surviving animals: 80%
Group XII: APAP 1000 mg/kg, NAC 300 mg/kg (P), time 20 h
  percentage of surviving animals: 80%
Group XII: APAP 1000 mg/kg, NAC 300 mg/kg (P), time 22 h
  percentage of surviving animals: 80%
Group XII: APAP 1000 mg/kg, NAC 300 mg/kg (P), time 24 h
  percentage of surviving animals: 80%
Group XIII: APAP 1000 mg/kg, NAC 100 mg/kg (C), time 0 h
  percentage of surviving animals: 100%
Group XIII: APAP 1000 mg/kg, NAC 100 mg/kg (C), time 6 h
  percentage of surviving animals: 100%
Group XIII: APAP 1000 mg/kg, NAC 100 mg/kg (C), time 8 h
  percentage of surviving animals: 90%
Group XIII: APAP 1000 mg/kg, NAC 100 mg/kg (C), time 9 h
  percentage of surviving animals: 80%
Group XIII: APAP 1000 mg/kg, NAC 100 mg/kg (C), time 10 h
  percentage of surviving animals: 60%
Group XIII: APAP 1000 mg/kg, NAC 100 mg/kg (C), time 11 h
  percentage of surviving animals: 50%
Group XIII: APAP 1000 mg/kg, NAC 100 mg/kg (C), time 12 h
  percentage of surviving animals: 50%
Group XIII: APAP 1000 mg/kg, NAC 100 mg/kg (C), time 13 h
  percentage of surviving animals: 40%
Group XIII: APAP 1000 mg/kg, NAC 100 mg/kg (C), time 14 h
  percentage of surviving animals: 30%
Group XIII: APAP 1000 mg/kg, NAC 100 mg/kg (C), time 15 h
  percentage of surviving animals: 20%
Group XIII: APAP 1000 mg/kg, NAC 100 mg/kg (C), time 16 h
  percentage of surviving animals: 20%
Group XIII: APAP 1000 mg/kg, NAC 100 mg/kg (C), time 17 h
  percentage of surviving animals: 20%
Group XIII: APAP 1000 mg/kg, NAC 100 mg/kg (C), time 18 h
  percentage of surviving animals: 10%
Group XIII: APAP 1000 mg/kg, NAC 100 mg/kg (C), time 20 h
  percentage of surviving animals: 10%
Group XIII: APAP 1000 mg/kg, NAC 100 mg/kg (C), time 22 h
  percentage of surviving animals: 10%
Group XIII: APAP 1000 mg/kg, NAC 100 mg/kg (C), time 24 h
  percentage of surviving animals: 10%
Group XIV: APAP 1000 mg/kg, NAC 300 mg/kg (C), time 0 h
  percentage of surviving animals: 100%
Group XIV: APAP 1000 mg/kg, NAC 300 mg/kg (C), time 6 h
  percentage of surviving animals: 100%
Group XIV: APAP 1000 mg/kg, NAC 300 mg/kg (C), time 8 h
  percentage of surviving animals: 100%
Group XIV: APAP 1000 mg/kg, NAC 300 mg/kg (C), time 9 h
  percentage of surviving animals: 90%
Group XIV: APAP 1000 mg/kg, NAC 300 mg/kg (C), time 10 h
  percentage of surviving animals: 80%
Group XIV: APAP 1000 mg/kg, NAC 300 mg/kg (C), time 11 h
  percentage of surviving animals: 80%
Group XIV: APAP 1000 mg/kg, NAC 300 mg/kg (C), time 12 h
  percentage of surviving animals: 60%
Group XIV: APAP 1000 mg/kg, NAC 300 mg/kg (C), time 13 h
  percentage of surviving animals: 40%
Group XIV: APAP 1000 mg/kg, NAC 300 mg/kg (C), time 14 h
  percentage of surviving animals: 40%
Group XIV: APAP 1000 mg/kg, NAC 300 mg/kg (C), time 15 h
  percentage of surviving animals: 40%
Group XIV: APAP 1000 mg/kg, NAC 300 mg/kg (C), time 16 h
  percentage of surviving animals: 30%
Group XIV: APAP 1000 mg/kg, NAC 300 mg/kg (C), time 17 h
  percentage of surviving animals: 30%
Group XIV: APAP 1000 mg/kg, NAC 300 mg/kg (C), time 18 h
  percentage of surviving animals: 30%
Group XIV: APAP 1000 mg/kg, NAC 300 mg/kg (C), time 20 h
  percentage of surviving animals: 20%
Group XIV: APAP 1000 mg/kg, NAC 300 mg/kg (C), time 22 h
  percentage of surviving animals: 20%
Group XIV: APAP 1000 mg/kg, NAC 300 mg/kg (C), time 24 h
  percentage of surviving animals: 20%
